The subject of the assay is Escherichia coli BL21 Δ7 cells. As to the kind of experiment: cells. The assay is classed as cell-based. Conditions: BL21, 5 h, read-out: IC50 (toxic to cell growth).

As a reminder, the IC50 is the concentration that inhibits the measured activity by half. For `COc1cccc2c1C(=O)c1c(O)c3c(c(O)c1C2=O)C[C@@](O)(C(=O)CO)C[C@@H]3O[C@H]1C[C@H](N)[C@H](O)[C@H](C)O1` [Doxorubicin, doxorubicin], the IC50 was approximately 1000 nM.

Values taken from paper PMC3842230 (Biochemistry, 2013).
